Assay results taken from publication PMC9220351, “Evaluation of a Conformationally Constrained Indole Carboxamide as a Potential Efflux Pump Inhibitor in Pseudomonas aeruginosa” (Antibiotics, 2022).

System: 34 MDR P. aeruginosa clinical isolates (CDC & FDA AR Isolate Bank)
Test: microbe, parasite or virus in culture
Assay type: cell-based, Pseudomonas aeruginosa
Details: for Levofloxacin MIC fold difference: + labelled EPI […] (TXA09155 head: 50 µg/mL); for Levofloxacin MIC: alone or + labelled EPI […] (TXA09155 head: 50 µg/mL)
Source text: P. aeruginosa ATCC 27853 was obtained from the American Type Culture Collection (ATCC; Manassas, VA, USA). P. aeruginosa multidrug-resistant isolates were obtained from the CDC and FDA Antibiotic Resistance Isolate Bank (Atlanta, GA, USA). P. aeruginosa DA7232 (gyrA-T83I, parC-S80L) was a kind gift from Prof. Dan I. Andersson, Uppsala University, Uppsala, Sweden, and has been characterized elsewhere. P. aeruginosa strains K767 (WT), K1455 (mexAB-oprM overexpressed), K2415 (mexXY-oprM overexpressed), and K3698 (oprM∆) were obtained from Prof. Keith Poole, Queen’s University, Kingston, Ontario, Canada and have been characterized elsewhere. Bacterial cells were grown in cation-adjusted Mueller Hinton (CAMH) media, brain heart infusion broth (BHI), or tryptic soy agar (TSA) plates were all obtained from Becton, Dickinson, and Company (BD; Franklin Lakes, NJ, USA). […] Azithromycin was purchased from Tokyo Chemical Industry (Portland, OR, USA). […] Ethidium bromide (EtBr) and glucose were purchased from VWR (Radnor, PA, USA). MC-04,124 and TXA01182 were synthesized at TAXIS Pharmaceuticals. Carbonyl cyanide 3-chlorophenylhydrazone (CCCP) was purchased from Enzo Life Sciences (Farmingdale, NY, USA). DiOC2 (3) and propidium iodide were obtained from Thermo Fisher Scientific (Waltham, MA, USA).
MIC assays were performed as described previously.

## NCCC[C@H](N)CNC(=O)c1cc2ccc(-c3ccc(F)cc3)cc2[nH]1 [TXA01182]
Strain AR-0229
  Levofloxacin MIC fold difference: 8
  Levofloxacin MIC: 8 µg/mL
Strain AR-0230
  Levofloxacin MIC fold difference: 4
  Levofloxacin MIC: 16 µg/mL
Strain AR-0231
  Levofloxacin MIC fold difference: 2
  Levofloxacin MIC: 32 µg/mL
Strain AR-0232
  Levofloxacin MIC fold difference: 8
  Levofloxacin MIC: 1 µg/mL
Strain AR-0233
  Levofloxacin MIC fold difference: 8
  Levofloxacin MIC: 0.5 µg/mL
Strain AR-0234
  Levofloxacin MIC fold difference: 8
  Levofloxacin MIC: 1 µg/mL
Strain AR-0236
  Levofloxacin MIC fold difference: 4
  Levofloxacin MIC: 8 µg/mL
Strain AR-0239
  Levofloxacin MIC fold difference: 8
  Levofloxacin MIC: 8 µg/mL
Strain AR-0240
  Levofloxacin MIC fold difference: 8
  Levofloxacin MIC: 16 µg/mL
Strain AR-0241
  Levofloxacin MIC fold difference: 4
  Levofloxacin MIC: 16 µg/mL
Strain AR-0242
  Levofloxacin MIC fold difference: 8
  Levofloxacin MIC: 2 µg/mL
Strain AR-0244
  Levofloxacin MIC fold difference: 16
  Levofloxacin MIC: 8 µg/mL
Strain AR-0245
  Levofloxacin MIC fold difference: 4
  Levofloxacin MIC: 32 µg/mL
Strain AR-0246
  Levofloxacin MIC fold difference: 4
  Levofloxacin MIC: 16 µg/mL
Strain AR-0247
  Levofloxacin MIC fold difference: 64
  Levofloxacin MIC: 0.031 µg/mL
Strain AR-0248
  Levofloxacin MIC fold difference: 8
  Levofloxacin MIC: 2 µg/mL
Strain AR-0249
  Levofloxacin MIC fold difference: 8
  Levofloxacin MIC: 8 µg/mL
Strain AR-0250
  Levofloxacin MIC fold difference: 4
  Levofloxacin MIC: 16 µg/mL
Strain AR-0252
  Levofloxacin MIC fold difference: 16
  Levofloxacin MIC: 2 µg/mL
Strain AR-0253
  Levofloxacin MIC fold difference: 16
  Levofloxacin MIC: 0.125 µg/mL
Strain AR-0256
  Levofloxacin MIC fold difference: 8
  Levofloxacin MIC: 0.062 µg/mL
Strain AR-0258
  Levofloxacin MIC fold difference: 4
  Levofloxacin MIC: 0.125 µg/mL
Strain AR-0259
  Levofloxacin MIC fold difference: 1
  Levofloxacin MIC: 0.125 µg/mL
Strain AR-0260
  Levofloxacin MIC fold difference: 4
  Levofloxacin MIC: 16 µg/mL
Strain AR-0261
  Levofloxacin MIC fold difference: 16
  Levofloxacin MIC: 0.5 µg/mL
Strain AR-0262
  Levofloxacin MIC fold difference: 16
  Levofloxacin MIC: 0.25 µg/mL
Strain AR-0264
  Levofloxacin MIC fold difference: 8
  Levofloxacin MIC: 4 µg/mL
Strain AR-0265
  Levofloxacin MIC fold difference: 8
  Levofloxacin MIC: 8 µg/mL
Strain AR-0266
  Levofloxacin MIC fold difference: 4
  Levofloxacin MIC: 8 µg/mL
Strain AR-0267
  Levofloxacin MIC fold difference: 16
  Levofloxacin MIC: 2 µg/mL
Strain AR-0269
  Levofloxacin MIC fold difference: 8
  Levofloxacin MIC: 4 µg/mL
Strain AR-0270
  Levofloxacin MIC fold difference: 16
  Levofloxacin MIC: 2 µg/mL
Strain AR-0271
  Levofloxacin MIC fold difference: 4
  Levofloxacin MIC: 8 µg/mL
Strain AR-0272
  Levofloxacin MIC fold difference: 4
  Levofloxacin MIC: 4 µg/mL
